Data taken from patent US12685726B2, “Sulfoximines as inhibitors of NaV1.8” (Gruenenthal GmbH, priority 2022, dated 2026).

Target: T1, human NaV 1.8 (Homo sapiens, UniProt Q9Y5Y9)
T1 construct: expressed in transfected cells; host or cells: HEK (recombinant cell line)
Experiment: Automated whole-cell patch clamp (Qube384) voltage-clamp recordings of sodium currents in HEK-NaV1.8 cell line
Format: cell-based
Details: read-out: Potency category (human NaV 1.8 IC50)
Procedure, shortened: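 HEK cells expressing NaV1.8 with b3, whole-cell automated voltage clamp at room temperature or 19° C.; CsF-based internal, pH 7.4 external. State-dependent (−120 mV, V1/2 4 s, −10 mV test pulses) and 10/20 Hz 40-pulse protocols; ~12 min compound, vehicle-corrected, IC50 by 4-parameter logistic fit.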

T1 sequence (Q9Y5Y9 whole entry): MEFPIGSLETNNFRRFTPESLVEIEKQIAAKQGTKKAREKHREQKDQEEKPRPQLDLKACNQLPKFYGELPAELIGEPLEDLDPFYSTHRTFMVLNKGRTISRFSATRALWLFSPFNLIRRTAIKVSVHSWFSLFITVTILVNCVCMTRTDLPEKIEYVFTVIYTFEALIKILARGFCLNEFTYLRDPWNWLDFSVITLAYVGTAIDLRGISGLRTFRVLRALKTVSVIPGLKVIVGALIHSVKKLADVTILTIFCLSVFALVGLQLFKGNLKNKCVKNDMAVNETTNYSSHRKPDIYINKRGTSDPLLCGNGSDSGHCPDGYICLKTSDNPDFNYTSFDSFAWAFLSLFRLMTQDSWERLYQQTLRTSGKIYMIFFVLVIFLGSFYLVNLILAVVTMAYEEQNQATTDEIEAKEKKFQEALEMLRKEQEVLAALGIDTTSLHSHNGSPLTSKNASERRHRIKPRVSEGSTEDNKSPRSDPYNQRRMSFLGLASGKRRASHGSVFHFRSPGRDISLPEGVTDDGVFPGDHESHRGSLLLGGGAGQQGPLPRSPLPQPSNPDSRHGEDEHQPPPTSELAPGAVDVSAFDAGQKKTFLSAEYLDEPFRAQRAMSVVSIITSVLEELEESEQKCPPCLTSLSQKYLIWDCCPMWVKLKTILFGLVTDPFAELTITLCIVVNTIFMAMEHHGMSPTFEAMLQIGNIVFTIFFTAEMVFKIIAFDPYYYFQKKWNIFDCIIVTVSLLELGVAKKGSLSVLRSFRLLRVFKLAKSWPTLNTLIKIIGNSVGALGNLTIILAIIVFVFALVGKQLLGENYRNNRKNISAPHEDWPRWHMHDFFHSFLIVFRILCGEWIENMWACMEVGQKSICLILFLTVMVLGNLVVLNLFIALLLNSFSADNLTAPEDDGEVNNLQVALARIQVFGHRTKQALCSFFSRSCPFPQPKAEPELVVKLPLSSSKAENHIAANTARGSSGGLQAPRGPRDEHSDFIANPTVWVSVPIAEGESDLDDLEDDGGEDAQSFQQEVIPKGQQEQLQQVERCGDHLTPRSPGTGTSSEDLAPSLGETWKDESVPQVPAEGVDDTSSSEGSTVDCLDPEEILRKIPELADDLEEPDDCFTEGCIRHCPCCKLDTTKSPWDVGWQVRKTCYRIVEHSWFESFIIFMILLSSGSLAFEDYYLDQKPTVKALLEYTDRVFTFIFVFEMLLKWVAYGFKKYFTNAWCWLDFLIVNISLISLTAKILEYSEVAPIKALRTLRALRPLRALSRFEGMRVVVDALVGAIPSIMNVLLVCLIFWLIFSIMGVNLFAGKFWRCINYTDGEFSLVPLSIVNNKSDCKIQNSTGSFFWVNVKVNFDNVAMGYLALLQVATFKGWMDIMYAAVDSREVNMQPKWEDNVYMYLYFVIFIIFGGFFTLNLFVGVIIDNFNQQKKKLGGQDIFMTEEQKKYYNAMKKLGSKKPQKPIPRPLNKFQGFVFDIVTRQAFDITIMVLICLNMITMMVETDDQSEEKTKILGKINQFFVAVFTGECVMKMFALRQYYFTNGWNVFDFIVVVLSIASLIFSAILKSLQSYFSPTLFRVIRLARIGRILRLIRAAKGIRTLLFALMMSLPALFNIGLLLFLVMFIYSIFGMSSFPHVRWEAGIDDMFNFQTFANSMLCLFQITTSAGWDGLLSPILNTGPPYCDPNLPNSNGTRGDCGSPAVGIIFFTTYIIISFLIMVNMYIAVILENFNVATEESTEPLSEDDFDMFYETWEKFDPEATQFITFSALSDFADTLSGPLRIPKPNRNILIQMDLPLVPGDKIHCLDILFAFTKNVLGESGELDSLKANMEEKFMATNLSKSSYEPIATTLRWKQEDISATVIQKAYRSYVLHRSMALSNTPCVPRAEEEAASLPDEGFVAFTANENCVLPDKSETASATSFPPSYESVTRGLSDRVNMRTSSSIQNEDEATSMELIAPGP

IC50, ≤ 100 nM:
CC1(Cn2nc(C3(F)CC3)c(C(F)(F)F)c2C(=O)Nc2ccnc(S(C)(=N)=O)c2)CC(F)(F)C1 (single isomer, unassigned) [Example 70b, 1-((3,3-Difluoro-1-methylcyclobutyl)methyl)-3-(1-fluorocyclopropyl)-N-(2-(S-methylsulfonimidoyl)pyridin-4-yl)-4-(trifluoromethyl)-1H-pyrazole-5-carboxamide]
C[C@]1(Cn2nc(C3CC3)c(C(F)(F)F)c2C(=O)Nc2ccnc([S@](C)(=N)=O)c2)CC(F)(F)C12CC2 (single isomer, unassigned) [Example 92a, 3-cyclopropyl-1-((6,6-difluoro-4-methylspiro[2.3]hexan-4-yl)methyl)-N-(2-(S-methylsulfonimidoyl)pyridin-4-yl)-4-(trifluoromethyl)-1H-pyrazole-5-carboxamide]
CCS(=N)(=O)c1cc(NC(=O)c2c(C(F)(F)F)c(C3CC3)nn2CC2(C)CC(F)(F)C2)ccn1 (single isomer, unassigned) [Example 48b, 3-cyclopropyl-1-((3,3-difluoro-1-methylcyclobutyl)methyl)-N-(2-(ethylsulfonimidoyl)pyridin-4-yl)-4-(trifluoromethyl)-1H-pyrazole-5-carboxamide]
CC1(Cn2nc(C3(F)CC3)c(C(F)(F)F)c2C(=O)Nc2cccc(S(=N)(=O)C(F)F)c2)CC(F)(F)C1 (single isomer, unassigned) [Example 130b, 1-((3,3-Difluoro-1-methylcyclobutyl)methyl)-N-(3-(S-(difluoromethyl)sulfonimidoyl)phenyl)-3-(1-fluorocyclopropyl)-4-(trifluoromethyl)-1H-pyrazole-5-carboxamide]
CC1(Cn2nc(C3CC3(F)F)c(C(F)(F)F)c2C(=O)Nc2ccnc(S(C)(=N)=O)c2)CC(F)(F)C1 (single isomer, unassigned) [Example 63b, 1-((3,3-Difluoro-1-methylcyclobutyl)methyl)-3-(2,2-difluorocyclopropyl)-N-(2-(S-methylsulfonimidoyl)pyridin-4-yl)-4-(trifluoromethyl)-1H-pyrazole-5-carboxamide]
CS(=N)(=O)c1cc(NC(=O)c2c(C(F)(F)F)c(C3CC3)nn2CC2(C(F)(F)F)CCCC2)ccn1 (single isomer, unassigned) [Example 98b, 3-cyclopropyl-N-(2-(S-methylsulfonimidoyl)pyridin-4-yl)-4-(trifluoromethyl)-1-((1-(trifluoromethyl)cyclopentyl)methyl)-1H-pyrazole-5-carboxamide]
CC1(Cn2nc(C3(F)CC3)c(C(F)(F)F)c2C(=O)Nc2cc(F)cc(S(C)(=N)=O)c2)CC(F)(F)C1 (single isomer, unassigned) [Example 127b, 1-((3,3-Difluoro-1-methylcyclobutyl)methyl)-N-(3-fluoro-5-(S-methylsulfonimidoyl)phenyl)-3-(1-fluorocyclopropyl)-4-(trifluoromethyl)-1H-pyrazole-5-carboxamide]
CC1(Cn2nc(C3CC3)c(C(F)(F)F)c2C(=O)Nc2cncc(S(C)(=N)=O)c2)CC(F)(F)C1 (single isomer, unassigned) [Example 46b, 3-cyclopropyl-1-((3,3-difluoro-1-methylcyclobutyl)methyl)-N-(5-(S-methylsulfonimidoyl)pyridin-3-yl)-4-(trifluoromethyl)-1H-pyrazole-5-carboxamide]
CC1(Cn2nc(C3(F)CC3)c(C(F)F)c2C(=O)Nc2cccc(S(C)(=N)=O)c2)CC(F)(F)C1 (single isomer, unassigned) [Example 135a, 1-((3,3-Difluoro-1-methylcyclobutyl)methyl)-4-(difluoromethyl)-3-(1-fluorocyclopropyl)-N-(3-(S-methylsulfonimidoyl)phenyl)-1H-pyrazole-5-carboxamide]
CC1(Cn2nc(C3CCC3)c(C(F)(F)F)c2C(=O)Nc2ccnc(S(C)(=N)=O)c2)CC(F)(F)C1 (single isomer, unassigned) [Example 56a, 3-cyclobutyl-1-((3,3-difluoro-1-methylcyclobutyl)methyl)-N-(2-(S-methylsulfonimidoyl)pyridin-4-yl)-4-(trifluoromethyl)-1H-pyrazole-5-carboxamide]
CS(=N)(=O)c1cc(NC(=O)c2c(C(F)(F)F)c(C3CC3)nn2CC2(F)CC3(CCC3)C2)ccn1 (single isomer, unassigned) [Example 21b, 3-cyclopropyl-1-((2-fluorospiro[3.3]heptan-2-yl)methyl)-N-(2-(S-methylsulfonimidoyl)pyridin-4-yl)-4-(trifluoromethyl)-1H-pyrazole-5-carboxamide]
CC1(Cn2nc(C3(C(F)F)CC3)c(C(F)(F)F)c2C(=O)Nc2ccnc(S(C)(=N)=O)c2)CC(F)(F)C1 (single isomer, unassigned) [Example 145a, 1-((3,3-Difluoro-1-methylcyclobutyl)methyl)-3-(1-(difluoromethyl)cyclopropyl)-N-(2-(S-methylsulfonimidoyl)pyridin-4-yl)-4-(trifluoromethyl)-1H-pyrazole-5-carboxamide]
C[C@H]1C[C@@H]1c1nn(CC2(C)CC(F)(F)C2)c(C(=O)Nc2ccnc([S@@](C)(=N)=O)c2)c1C(F)(F)F (single isomer, unassigned) [Example 65b, 1-((3,3-Difluoro-1-methylcyclobutyl)methyl)-3-((trans)-2-methylcyclopropyl)-N-(2-(S-methylsulfonimidoyl)pyridin-4-yl)-4-(trifluoromethyl)-1H-pyrazole-5-carboxamide]
CC1(Cn2nc(C3CC3)c(C(F)(F)F)c2C(=O)Nc2ccnc(S(C)(=O)=NC#N)c2)CC(F)(F)C1 (single isomer, unassigned) [Example 142a, N-(2-(N-Cyano-S-methylsulfonimidoyl)pyridin-4-yl)-3-cyclopropyl-1-((3,3-difluoro-1-methylcyclobutyl)methyl)-4-(trifluoromethyl)-1H-pyrazole-5-carboxamide]
CS(=N)(=O)c1cc(NC(=O)c2c(C(F)(F)F)c(C34CC(C3)C4)nn2CC2C[C@@H]2C(F)F)ccn1 (stereo in doubt) [Example 146, 3-(Bicyclo[1.1.1]pentan-1-yl)-1-(((trans)-2-(difluoromethyl)cyclopropyl)methyl)-N-(2-(S-methylsulfonimidoyl)pyridin-4-yl)-4-(trifluoromethyl)-1H-pyrazole-5-carboxamide]
C[C@@]1(Cn2nc(C3CC3)c(C(F)(F)F)c2C(=O)Nc2ccnc([S@@](C)(=N)=O)c2)CC(F)(F)C12CC2 (single isomer, unassigned) [Example 92d, 3-cyclopropyl-1-((6,6-difluoro-4-methylspiro[2.3]hexan-4-yl)methyl)-N-(2-(S-methylsulfonimidoyl)pyridin-4-yl)-4-(trifluoromethyl)-1H-pyrazole-5-carboxamide]
